Key:
Type in all cases: cell-based, Chlamydomonas reinhardtii
C. reinhardtii UTEX 2244 = assay: Minimum inhibitory bleocin concentration on solid medium, wild-type cells
Experimental: (§1) Exposure of C. reinhardtii to antibiotic selective pressure was performed as follows. In order to test the efficacy of the antibiotic bleocin (EMD Biosciences) on C. reinhardtii UTEX 2244, algal cells were grown on solid medium containing various concentrations of this selective agent—0, 0.25, 0.5, 1.0, 2.0, 4.0, 6.0, and 8.0 mg L^−1. Duplicate plates were initially spread with either 1×10^3 or 5×10^7 wild-type cells and the cultures' viability was examined over a period of two weeks. Once stable transformants were obtained, this experiment was repeated with a mixed population of wild-type and bleomycin-resistant cells (5×10^7:1×10^3) to verify the emergence of individual colonies from the surrounding lawn of algal cells.

[1] = system: bleomycin-resistant C. reinhardtii stable transformants; assay: Bleocin kill curves on solid medium, mixed population of wild-type and bleomycin-resistant cells; settings: mixed population wild-type:bleomycin-resistant cells 5×10^7:1×10^3, solid medium, two weeks
Experimental: as §1

[2] = system: C. reinhardtii UTEX 2244 and transformants; assay: Rose Bengal photooxidative stress kill curves in liquid culture; settings: 2 μM Rose Bengal, within the first five hours of exposure
Experimental: Exposure of C. reinhardtii to Rose Bengal was performed as follows. In order to induce apoptosis in C. reinhardtii by the mechanism of photooxidative stress, algal cells were grown on solid medium containing various concentrations of the photosensitizing dye Rose Bengal as described in Fischer et al. (Plant Sci, 168:747-759 (2005)). Duplicate plates with RB levels as high as up to 2.0 μM were initially spread with 1×10^3 cells and resulting colonies were counted after a: period of one week. UTEX 2244 was used as a control. Cell viability is reported as a percentage of surviving cells. Additionally, kill curves were conducted in liquid culture using 100-ml stirrer flasks under the same cultivation conditions mentioned previously, with the exception of aeration. Each culture was seeded with an inoculum of exponentially growing cells (1×10^6 cells ml^−1) and the cell density was measured with a Zeiss Axiovert™ 100 inverted light microscope using a hemocytometer over a one-week period. In the experimental flasks, 100x RB dissolved in isopropanol stock solution was added three days after inoculation to cultures of approximately 0.2×10^6 cells ml^−1 in order achieve a final concentration of 2.0 μM; control flasks were unaltered.

Compound | minimum inhibitory concentration (M.I.C.) to eradicate the entire population (C. reinhardtii UTEX 2244; high density lawn, 5×10^7 cells per plate, two-week incubation) | concentration sufficient to completely inhibit growth (absence of colony formation) (C. reinhardtii UTEX 2244; low density, 1,000 cells per plate, solid medium) [mg/L] | concentration giving widespread cell death (C. reinhardtii UTEX 2244; within only four days of exposure) | bleocin concentration in which some stable transformants were able to survive [1] [mg/L] | effect on cell populations [2]
bleocin | at least 1 mg L^−1 | 0.25 | more than 4 mg L^−1 | ≤ 8 | –
O=C([O-])c1c(Cl)c(Cl)c(Cl)c(Cl)c1-c1c2cc(I)c(=O)c(I)c-2oc2c(I)c([O-])c(I)cc12.[Na+].[Na+] [Rose Bengal] | – | – | – | – | all populations experienced some cell death

From patent US20160186196A1 (priority 2009, published 2016)
